Counter-ions that a name gives are not always drawn.
Key:
[1] = system: epidermal thickening and infiltration of inflammatory cells into the dermis; assay: HE staining of auricular sections of MC903 model mice; type: in vivo, C57BL/6N female mice; conditions: auricular sections day 11; 5 mM topical daily + MC903; vs MC903 + EtOH
Experimental: (§1) After the blood collection in Example 1, the mice were sacrificed by cervical dislocation and auricular sections were collected. Some of the auricular sections were paraffin-embedded and other sections were served for RNA extraction. The paraffin-embedded sections were observed by hematoxylin-eosin (HE) staining. RNA was extracted from the sections and cDNA was synthesized. The expression levels of various genes were analyzed by real-time PCR with SYBR Green using each cDNA as a template. Gapdh was used as an internal standard.

[2] = system: psoriasis induced by repeated applications of 5% imiquimod cream; assay: Model mice of imiquimod-induced psoriasis: auricular thickness; type: in vivo, C57BL6/N female mice; conditions: 5 mM topical daily for 6 or 18 days + 5% imiquimod cream; vs imiquimod + EtOH
Experimental: The effect of KUS121 application on psoriasis was evaluated. For modeling psoriasis, model mice of psoriasis induced by repeated applications of 5% imiquimod cream was used. Six- to eight-week-old C57BL6/N female mice (purchased from Oriental Bioservice, Inc) were used. The mice were anesthetized by subcutaneously injecting 150 μL of three types of mixed anesthesia. Under anesthesia the following substances were applied for 6 or 18 days. After 10 μL of 5 mM KUS121 or 90% EtOH was applied to each side of the left auricle, 5 mg of 5% imiquimod cream (MOCHIDA PHARMACEUTICAL CO., LTD.) was applied on each side. KUS121 or 90% EtOH was applied daily and imiquimod cream was applied on days 0, 2, 4, 7, 9, 11, 14, and 16. The auricular thicknesses were measured immediately before the substance applications.

Filaggrin (Flg) = assay: Flg mRNA expression in auricular sections, real-time PCR; type: in vivo, C57BL/6N female mice; conditions: auricular sections day 11; Gapdh internal standard; 5 mM topical + MC903; vs MC903 + EtOH and EtOH alone
Experimental: as §1

IgE = assay: Serum IgE level (Elisa kit) in MC903 model mice; type: in vivo, C57BL/6N female mice; conditions: serum on day 11; 5 mM topical daily + MC903; vs MC903 + EtOH
Experimental: (§2) The effect of KUS121 application on atopic dermatitis was evaluated. For modeling atopic dermatitis, model mice of atopic dermatitis-like skin inflammation induced by repeated applications of MC903, an active vitamin D3 analog, were used. Eight-week-old C57BL/6N female mice were used (purchased from SHIMIZU Laboratory Supplies Co., Ltd.). Under isoflurane anesthesia, the following substances were applied for 10 days. After 10 μL of 5 mM KUS121 (solvent: 90% EtOH) or 90% EtOH was applied to each side of the left auricle, 10 μL of 100 μM MC903 (solvent: 100% EtOH) was applied on each side. […] The auricular thicknesses were measured immediately before the substance application using a constant pressured thickness measuring instrument (Tecloc). The thicknesses were measured immediately before the first substance application and then every other day for ten days. In addition, the effect of KUS121 alone was evaluated by the following substance applications. […] The auricular thicknesses were measured immediately before the first substance application and then every other day for ten days. […] The blood was allowed to stand at room temperature for at least 30 minutes, the serum was separated by centrifugation (1500×g, 10 minutes), and the serum levels of immunoglobulins (IgE and IgG1) was measured using Elisa kit (Bethyl Laboratories).

skin barrier function = assay: Transepidermal water loss and auricular thickness in MC903-applied mice (skin barrier function); type: in vivo, C57BL6/N female mice; conditions: 5 mM topical daily for 12 days + MC903 every other day; vs MC903 + EtOH
Experimental: The effect of KUS121 application on skin barrier function was evaluated by determining transepidermal water loss. Six- to eight-week-old C57BL6/N female mice (purchased from Oriental Bioservice, Inc) were used. The mice were anesthetized by subcutaneously injecting 150 μL of three types of mixed anesthesia (1 mg/mL medetomidine hydrochloride, 5 mg/mL mitazolam, 5 mg/mL butorphanol tartrate, solvent: sterile distilled water). Under anesthesia the following substances were applied for 12 days. For each mouse 10 μL of 5 mM KUS121 was applied to each side of the left auricle and 10 μL of 90% EtOH was applied to each side of the right auricle. Some mice were additionally applied with 10 μL of 100 μM MC903 on each side of both auricles every other day; KUS121 or 90% EtOH was applied at first and then MC903 was applied. The levels of transepidermal water loss was determined using APO SCAN AS-VT100 (Asahi Techno Lab. ltd.). The auricular thicknesses were measured immediately before the first substance application and daily for subsequent 12 days. The levels of transepidermal water loss were determined on days 0, 2, 4, 6, 8, 10, 11, and 12 immediately before the substance applications in each day.

KLK7 = KLK7 mRNA expression in auricular sections of MC903 model mice; type: in vivo, C57BL/6N female mice; conditions: mice treated as in Example 1; 5 mM topical + MC903; vs MC903 + EtOH
Experimental: as §2, with “Laboratories). […]” for “Laboratories).”

[3] = system: itching in atopic dermatitis-like skin inflammation induced by MC903; assay: Itching (scratching behavior) and auricular thickness in MC903 model mice, treatment started on day 6; type: in vivo, C57BL/6N female mice
Experimental: The effect of KUS121 application on itching was evaluated. For modeling itching, model mice of atopic dermatitis-like skin inflammation induced by repeated applications of MC903 were used. Eight-week-old C57BL/6N female mice (purchased from SHIMIZU Laboratory Supplies Co., Ltd.) were used. Under isoflurane anesthesia, the following substances were applied for 15 days. 10 μL of 100 μM MC903 was applied on each side of both auricles every three days. To each side of the left auricle 10 μL of 5 mM KUS121 was applied daily and to each side of the right auricle 10 μL of 90% EtOH was applied daily. The application of KUS121 or 90% EtOH was started on day 6 from the first substance application; KUS121 or 90% EtOH was applied at first and then MC903 was applied. On day 12 from the start of the treatment, 1 to 2 hours after the substance application, five mice awakened from anesthesia were left in a shooting box (SHINANO manufacturing CO., LTD, W 25×D 25×H 30 cm) and their behavior was recorded from above using a video camera (Victor). Scratching behavior was evaluated by counting the total number of ear contacts by the front paws and determining the total scratching time by the hind paws within one hour from the start of the recording. The data of the five mice were summed and the total values were adopted as the results.

[4] = system: irritant contact dermatitis induced by sodium dodecyl sulfate (SDS); assay: Model mice of SDS-induced irritant contact dermatitis: auricular thickness; type: in vivo, C57BL6/J male mice; conditions: 5 mM topical daily for 4 days + 4% SDS daily; vs SDS + EtOH
Experimental: The effect of KUS121 application on irritant contact dermatitis was evaluated. For modeling irritant contact dermatitis, model mice of irritant contact dermatitis induced by sodium dodecyl sulfate (SDS) was used. Ten-week-old C57BL6/J male mice (purchased from Oriental Bioservice, Inc) were used. The mice were anesthetized by subcutaneously injecting 150 μL of three types of mixed anesthesia. Under anesthesia the following substances were applied for 4 days. After 10 μL of 5 mM KUS121 or 90% EtOH was applied to each side of the left auricle, 10 μL of 4% SDS was applied on each side. The substances were applied daily and the auricular thicknesses were measured immediately before the substance applications.

Keratin 6a (Krt6a) = assay: Krt6a mRNA expression in auricular sections, real-time PCR; type: in vivo, C57BL/6N female mice; conditions: auricular sections day 11; Gapdh internal standard; 5 mM topical + MC903; vs MC903 + EtOH
Experimental: as §1

IgG1 = assay: Serum IgG1 level (Elisa kit) in MC903 model mice; type: in vivo, C57BL/6N female mice; conditions: serum on day 11; 5 mM topical daily + MC903; vs MC903 + EtOH
Experimental: as §2

[5] = system: atopic dermatitis-like skin inflammation induced by repeated applications of MC903; assay: Model mice of MC903-induced atopic dermatitis-like skin inflammation: auricle appearance and auricular thickness; type: in vivo, C57BL/6N female mice; conditions: 10 μL of 5 mM topically to each side of left auricle daily for 10 days, MC903 every other day; vs MC903 + EtOH
Experimental: The effect of KUS121 application on atopic dermatitis was evaluated. For modeling atopic dermatitis, model mice of atopic dermatitis-like skin inflammation induced by repeated applications of MC903, an active vitamin D3 analog, were used. Eight-week-old C57BL/6N female mice were used (purchased from SHIMIZU Laboratory Supplies Co., Ltd.). Under isoflurane anesthesia, the following substances were applied for 10 days. After 10 μL of 5 mM KUS121 (solvent: 90% EtOH) or 90% EtOH was applied to each side of the left auricle, 10 μL of 100 μM MC903 (solvent: 100% EtOH) was applied on each side. From the start of the substance application, KUS121 or 90% EtOH was applied daily and MC903 was applied every other day. The auricular thicknesses were measured immediately before the substance application using a constant pressured thickness measuring instrument (Tecloc). The thicknesses were measured immediately before the first substance application and then every other day for ten days. In addition, the effect of KUS121 alone was evaluated by the following substance applications. To each side of the left auricle 10 μL of 5 mM KUS121 was applied daily and to each side of the right auricle 10 μL of 90% EtOH was applied daily. The auricular thicknesses were measured immediately before the first substance application and then every other day for ten days. A blood sample was collected from a buccal vein on day 11 from the first substance application (14 hours after the substance application on day 10). The blood was allowed to stand at room temperature for at least 30 minutes, the serum was separated by centrifugation (1500×g, 10 minutes), and the serum levels of immunoglobulins (IgE and IgG1) was measured using Elisa kit (Bethyl Laboratories).
The experiments were performed as in Example 1, except for KUS187 was used in place of KUS121. The appearance of the auricle was observed and the auricular thicknesses were measured. […] The mice applied with MC903 and treated with EtOH had skin redness, desquamation, and crust as well as increased auricular thickness.

SMILES	lesions in HE staining (epidermal thickening, infiltration of inflammatory cells such as eosinophils into the dermis) [1]	auricular thickness [2]	Flg expression (messenger RNA) (Filaggrin (Flg))	blood level of IgE (IgE)	auricular thickness (skin barrier function)	transepidermal water loss from auricular skin (skin barrier function)	KLK7 expression (messenger RNA) (KLK7)	scratching behavior (number of ear contacts by front paws, scratching time by hind paws within one hour) ([3]; day 12, 5 mM topical daily from day 6, MC903 every three days, vs MC903 + EtOH)	increase of auricular thickness ([3]; treatment started after 6 days from the start of MC903 application, 5 mM topical daily)	auricular thickness [4]	Krt6a expression (messenger RNA) (Keratin 6a (Krt6a))	blood level of IgG1 (IgG1)	auricular thickness [5]	skin lesion (skin redness, desquamation, crust), appearance of auricle [5]
Cc1cc(F)ccc1-c1ccc(/N=N/c2cc(S(=O)(=O)O)c3ccccc3c2N)cn1 [KUS121, 4-amino-3-[6-(4-fluoro-2-methylphenyl)pyridine-3-ylazo]naphthalene-1-sulfonic acid sodium salt]	suppressed more strongly	No difference	elevated	lower	increases were suppressed	increases were suppressed	the increase was suppressed	less	suppressed	the increase was suppressed	weaker	lower	less increased auricular thickness	less skin lesion
CCCCOc1c(C=O)cc(C)cc1-c1ccc(/N=N/c2cc(S(=O)(=O)O)c3ccccc3c2N)cn1 [KUS187, 4-amino-3-[6-(3-formyl-2-butoxy-5-methylphenyl)pyridine-3-ylazo] naphthalene-1-sulfonic acid sodium salt]	–	–	–	–	–	–	–	–	–	–	–	–	less increased auricular thickness	less skin lesion

Reference: US20240216397A1, “COMPOSITION FOR AMELIORATING SKIN TISSUE ABNORMALITY” (Kyoto University, priority 2021, published 2024)
